Results on 28 molecules are retold here after patent publication US8389557B2, “Triazole derivatives useful as Axl inhibitors” (Rigel Pharmaceuticals, Inc., priority 2005, dated 2013).

One assay concerns the target T1, Axl (Homo sapiens, UniProt P30530).
T1 construct: endogenous in cells; host or cells: HeLa cells
T1 sequence (P30530 26-894): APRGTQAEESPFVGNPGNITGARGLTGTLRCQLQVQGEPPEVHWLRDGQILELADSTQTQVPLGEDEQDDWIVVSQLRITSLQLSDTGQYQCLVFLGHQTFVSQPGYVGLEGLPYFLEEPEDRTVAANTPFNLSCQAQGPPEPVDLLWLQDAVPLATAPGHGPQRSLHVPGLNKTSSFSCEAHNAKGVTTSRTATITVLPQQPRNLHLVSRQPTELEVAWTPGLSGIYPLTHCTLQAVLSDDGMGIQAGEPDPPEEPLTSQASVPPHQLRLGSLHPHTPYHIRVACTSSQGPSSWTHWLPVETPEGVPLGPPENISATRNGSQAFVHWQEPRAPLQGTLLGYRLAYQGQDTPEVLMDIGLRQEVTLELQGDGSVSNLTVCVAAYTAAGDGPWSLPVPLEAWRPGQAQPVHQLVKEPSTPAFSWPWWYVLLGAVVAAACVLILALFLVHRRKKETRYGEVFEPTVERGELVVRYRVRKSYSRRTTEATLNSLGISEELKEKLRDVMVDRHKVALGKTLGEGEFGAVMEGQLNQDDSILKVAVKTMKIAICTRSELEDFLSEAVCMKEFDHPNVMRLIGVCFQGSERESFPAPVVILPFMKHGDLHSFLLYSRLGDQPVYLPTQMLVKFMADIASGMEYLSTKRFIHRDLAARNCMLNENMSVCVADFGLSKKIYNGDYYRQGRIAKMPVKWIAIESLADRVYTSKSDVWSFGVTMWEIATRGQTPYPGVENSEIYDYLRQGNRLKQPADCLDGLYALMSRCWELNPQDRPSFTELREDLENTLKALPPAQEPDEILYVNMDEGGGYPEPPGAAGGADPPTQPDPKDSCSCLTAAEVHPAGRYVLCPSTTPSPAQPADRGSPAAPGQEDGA
Put plainly: Phospho-Akt in-cell Western assay (inhibition of Axl activity). Format: cell-based. Conditions: Table 5; Hela cells, Axl antibody cross-linking stimulation, phospho-Akt chemiluminescence. Summed up:
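HeLa cells on poly-L-lysine, starved 24 h in 0.5% FCS DMEM with Axl/Fc 500 ng/mL, pre-treated with compound 1 h at 37° C. Axl stimulated 5 min by anti-Axl/anti-mouse antibody cross-linking. Fixed cells probed with anti-phospho-Akt and HRP secondary, chemiluminescence read.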
For the molecule `CC(C)(C)Oc1ccc(C(=O)n2nc(NC3C4C=CC(C4)C3C(N)=O)nc2N)cc1` (stereo not shown) [compound 346, 5-amino-1-(4-(tert-butoxy)phenyl)carbonyl-3-[(5-(aminocarbonyl)bicyclo[2.2.1]hept-2-en-6-yl)amino]-1H-1,2,4-triazole], the IC50 (in general, the concentration needed to halve the response being measured) is over 20 µM.
`CC(C)(C)Oc1cccc(C(=O)n2nc(NC3C4C=CC(C4)C3C(N)=O)nc2N)c1` (stereo not shown) [compound 348, 5-amino-1-(3-(tert-butoxy)phenyl)carbonyl-3-[(5-(aminocarbonyl)bicyclo[2.2.1]hept-2-en-6-yl)amino]-1H-1,2,4-triazole] came in with an IC50 of over 20 µM.
Regarding `CN(C)c1ccc(C(=O)n2nc(NC3C4C=CC(C4)C3C(N)=O)nc2N)cc1` (stereo not shown) [compound 350, 5-amino-1-(4-(dimethylamino)phenyl)carbonyl-3-[(5-(aminocarbonyl)bicyclo[2.2.1]hept-2-en-6-yl)amino]-1H-1,2,4-triazole], the IC50 is over 20 µM.
With `CN(C)c1cccc(C(=O)n2nc(NC3C4C=CC(C4)C3C(N)=O)nc2N)c1` (stereo not shown) [compound 352, 5-amino-1-(3-(dimethylamino)phenyl)carbonyl-3-[(5-(aminocarbonyl)bicyclo[2.2.1]hept-2-en-6-yl)amino]-1H-1,2,4-triazole], the half-maximal inhibitory concentration (IC50) is over 20 µM.
Molecule `CC(C)Oc1ccc(C(=O)n2nc(NC3C4C=CC(C4)C3C(N)=O)nc2N)cc1` (stereo not shown) [compound 354, 5-amino-1-(4-(iso-propoxy)phenyl)carbonyl-3-[(5-(aminocarbonyl)bicyclo[2.2.1]hept-2-en-6-yl)-amino]-1H-1,2,4-triazole] had an IC50 of over 20 µM.

The assay is the same for the next values; noted with them: Table 6; Hela cells, Axl antibody cross-linking stimulation, phospho-Akt chemiluminescence.
Molecule `CC(C)(C)Oc1ccc(C(=O)n2nc(N)nc2NC2C3C=CC(C3)C2C(N)=O)cc1` (stereo not shown) [compound 345, 3-amino-1-(4-(tert-butoxy)phenyl)carbonyl-5-[(3-(aminocarbonyl)bicyclo[2.2.1]hept-5-en-2-yl)amino]-1H-1,2,4-triazole] gave an IC50 of over 20 µM.
`CC(C)(C)Oc1cccc(C(=O)n2nc(N)nc2NC2C3C=CC(C3)C2C(N)=O)c1` (stereo not shown) [compound 347, 3-amino-1-(3-(tert-butoxy)phenyl)carbonyl-5-[(3-(aminocarbonyl)bicyclo[2.2.1]hept-5-en-2-yl)amino]-1H-1,2,4-triazole] returned an IC50 of over 20 µM.
As to `CN(C)c1ccc(C(=O)n2nc(N)nc2NC2C3C=CC(C3)C2C(N)=O)cc1` (stereo not shown) [compound 349, 3-amino-1-(4-(dimethylamino)phenyl)carbonyl-5-[(3-(aminocarbonyl)bicyclo[2.2.1]hept-5-en-2-yl)amino]-1H-1,2,4-triazole], the IC50 was over 20 µM.
In the case of `CN(C)c1cccc(C(=O)n2nc(N)nc2NC2C3C=CC(C3)C2C(N)=O)c1` (stereo not shown) [compound 351, 3-amino-1-(3-(dimethylamino)phenyl)carbonyl-5-[(3-(aminocarbonyl)bicyclo[2.2.1]hept-5-en-2-yl)amino]-1H-1,2,4-triazole], the IC50 is over 20 µM.
For `CC(C)Oc1ccc(C(=O)n2nc(N)nc2NC2C3C=CC(C3)C2C(N)=O)cc1` (stereo not shown) [compound 353, 3-amino-1-(4-(iso-propoxy)phenyl)carbonyl-5-[(3-(aminocarbonyl)bicyclo[2.2.1]hept-5-en-2-yl)amino]-1H-1,2,4-triazole], the IC50 was over 20 µM.

Staying with this assay, now noted: Table 9; Hela cells, Axl antibody cross-linking stimulation, phospho-Akt chemiluminescence.
`NC(=O)C1C2C=CC(C2)C1Nc1nc(N)n(C(=O)c2ccc3cc[nH]c3c2)n1` (stereo not shown) [compound 356, 5-amino-1-(1H-indol-6-yl)carbonyl-3-[(5-(aminocarbonyl)bicyclo[2.2.1]hept-2-en-6-yl)amino]-1H-1,2,4-triazole] gave an IC50 of over 20 µM.

Staying with this assay, now noted: Table 10; Hela cells, Axl antibody cross-linking stimulation, phospho-Akt chemiluminescence.
Consider `NC(=O)C1C2C=CC(C2)C1Nc1nc(N)nn1C(=O)c1ccc2cc[nH]c2c1` (stereo not shown) [compound 355, 3-amino-1-(1H-indol-6-yl)carbonyl-5-[(3-(aminocarbonyl)bicyclo[2.2.1]hept-5-en-2-yl)amino]-1H-1,2,4-triazole], for which the half-maximal inhibitory concentration (IC50) was over 20 µM.

The assay is the same for the next values; noted with them: inhibition of Axl activity, phospho-Akt in-cell Western assay; Table 1.
In turn, `Nc1nc(Nc2ccc(OCCN3CCCC3)cc2)nn1C(=O)c1cccc(N2CCOCC2)c1` [compound 331, 5-amino-1-(3-(morpholin-4-yl)phenyl)carbonyl-3-[4-[2-(pyrrolidin-1-yl)ethoxy]phenylamino]-1H-1,2,4-triazole] yielded a 50% inhibitory concentration (IC50) of under 1 µM.
Consider `Nc1nc(Nc2ccc(OCCN3CCCC3)cc2)nn1C(=O)c1ccc(OCCN2CCOCC2)cc1` [compound 332, 5-amino-1-[4-(2-(morpholin-4-yl)ethoxy)phenyl]carbonyl-3-[4-[2-(pyrrolidin-1-yl)ethoxy]phenylamino]-1H-1,2,4-triazole], for which the IC50 is under 1 µM.
Molecule `CC(C)Oc1ccc(C(=O)n2nc(Nc3ccccc3)nc2N)cc1` [compound 333, 5-amino-1-(4-(iso-propoxy)phenyl)carbonyl-3-(phenylamino)-1H-1,2,4-triazole] came in with a concentration for half-maximal inhibition (IC50) of 1 to 10 µM.
Same read-out and setting: for `Nc1nc(Nc2ccccc2)nn1C(=O)c1ccc(-c2csnn2)cc1` [compound 334, 5-amino-1-(4-(1,2,3-thiadiazol-4-yl)phenyl)carbonyl-3-(phenylamino)-1H-1,2,4-triazole] the value was over 20 µM; for `Nc1nc(Nc2ccccc2)nn1C(=O)c1ccc(N2CCOCC2)cc1` [compound 335, 5-amino-1-(4-(morpholin-4-yl)phenyl)carbonyl-3-(phenylamino)-1H-1,2,4-triazole], over 20 µM; for `Nc1nc(Nc2ccccc2)nn1C(=O)c1cccc(N2CCOCC2)c1` [compound 336, 5-amino-1-(3-(morpholin-4-yl)phenyl)carbonyl-3-(phenylamino)-1H-1,2,4-triazole], 10 to 20 µM.
The molecule `CC(C)Oc1ccc(C(=O)n2nc(Nc3ccc(OCCN4CCCC4=O)cc3)nc2N)cc1` [compound 337, 5-amino-1-(4-(iso-propoxy)phenyl)carbonyl-3-[4-[2-(pyrrolidin-2-on-1-yl)ethoxy]phenylamino]-1H-1,2,4-triazole] came in with an IC50 of under 1 µM.
In the case of `Nc1nc(Nc2ccc(OCCN3CCCC3=O)cc2)nn1C(=O)c1ccc(-c2csnn2)cc1` [compound 338, 5-amino-1-(4-(1,2,3-thiadiazol-4-yl)phenyl)carbonyl-3-[4-[2-(pyrrolidin-2-on-1-yl)ethoxy]phenylamino]-1H-1,2,4-triazole], the half-maximal inhibitory concentration (IC50) lay in the range of 1 to 10 µM.
Turning to `Nc1nc(Nc2ccc(OCCN3CCCC3=O)cc2)nn1C(=O)c1ccc(N2CCOCC2)cc1` [compound 339, 5-amino-1-(4-(morpholin-4-yl)phenyl)carbonyl-3-[4-[2-(pyrrolidin-2-on-1-yl)ethoxy]phenylamino]-1H-1,2,4-triazole], the IC50 fell in the range of 1 to 10 µM.
The molecule `Nc1nc(Nc2ccc(OCCN3CCCC3=O)cc2)nn1C(=O)c1cccc(N2CCOCC2)c1` [compound 340, 5-amino-1-(3-(morpholin-4-yl)phenyl)carbonyl-3-[4-[2-(pyrrolidin-2-on-1-yl)ethoxy]phenylamino]-1H-1,2,4-triazole] came in with an IC50 of 1 to 10 µM.
On to `CC(C)(C)Oc1ccc(C(=O)n2nc(Nc3ccccc3)nc2N)cc1` [compound 341, 5-amino-1-(4-(tert-butoxy)phenyl)carbonyl-3-(phenylamino)-1H-1,2,4-triazole], for which the concentration for half-maximal inhibition (IC50) is 1 to 10 µM.
In turn, `CC(C)(C)Oc1ccc(C(=O)n2nc(Nc3ccc(OCCN4CCCC4=O)cc3)nc2N)cc1` [compound 342, 5-amino-1-(4-(tert-butoxy)phenyl)carbonyl-3-[4-[2-(pyrrolidin-2-on-1-yl)ethoxy]phenylamino]-1H-1,2,4-triazole] came in with an IC50 of under 1 µM.
For the molecule `COc1cc(Nc2nc(N)n(C(=O)c3ccc(N4CCOCC4)cc3)n2)ccc1OCCN1CCCC1` [compound 343, 5-amino-1-(4-(morpholin-4-yl)phenyl)carbonyl-3-[3-methoxy-4-[2-(pyrrolidin-1-yl)ethoxy]phenylamino]-1H-1,2,4-triazole], the IC50 was under 1 µM.
Same read-out and setting: for `COc1cc(Nc2nc(N)n(C(=O)c3cccc(N4CCOCC4)c3)n2)ccc1OCCN1CCCC1` [compound 344, 5-amino-1-(3-(morpholin-4-yl)phenyl)carbonyl-3-[3-methoxy-4-[2-(pyrrolidin-1-yl)ethoxy]phenylamino]-1H-1,2,4-triazole] the value was under 1 µM.
Still for that read-out and setting: for `CN1CCN(c2ccc(Nc3nc(N)n(C(=O)c4ccc(OC(C)(C)C)cc4)n3)cc2)CC1` [compound 357, 5-amino-1-(4-(tert-butoxy)phenyl)carbonyl-3-[4-(4-methylpiperazin-1-yl)phenylamino]-1H-1,2,4-triazole] the value was under 1 µM; for `CN1CCN(c2ccc(Nc3nc(N)n(C(=O)c4cccc(OC(C)(C)C)c4)n3)cc2)CC1` [compound 358, 5-amino-1-(3-(tert-butoxy)phenyl)carbonyl-3-[4-(4-methylpiperazin-1-yl)phenylamino]-1H-1,2,4-triazole], under 1 µM.
